This note sets out measurements from patent US9980973B2, “Bicyclic heterocycle compounds and their uses in therapy” (ASTEX THERAPEUTICS LIMITED, priority 2012, dated 2018).

Broadly, the IC50 is the concentration that gives 50% inhibition.

Structures can show the parent of a compound that is named as a salt. Where two headings read alike, the source gives them in different places.

For test [1], the system named is EVSA-T (human breast carcinoma). Description: Anti-proliferative activity, Alamar Blue assay, EVSA-T. Type of test: cell-based. (Resazurin is reduced to fluorescent resorufin, in cell work by metabolically active cells.)
The target of test [2] is T1, BIR3 domain of human cIAP-1 (Homo sapiens, UniProt Q13490).
T1 construct: human cIAP-1 (residues 267-363) fused to a GST-tag; GST-tag (cleaved yes); made in house; host or cells: Escherichia coli
Description: cIAP-1 in vitro competitive displacement binding assay (fluorescence polarization). The following applies: PI at […].

Test [3] has as its target T2, BIR3 domain of human XIAP (Homo sapiens, UniProt P98170).
T2 construct: BIR3 domain of human XIAP (residues 252-350) fused to a His-tag; His-tag (cleaved yes); made in house; host or cells: Escherichia coli
In words: XIAP in vitro competitive displacement binding assay (fluorescence polarization). A general note: Fluorescence polarisation rises when a labelled molecule tumbles more slowly, as on binding a larger partner.

The mark [4] stands for this setting: EVSA-T cells, 72 hours, Alamar Blue, dihydrochloride, read-out: EVSA-T prolif.
[5] abbreviates: PI at 0.04 μM, 60 min, dihydrochloride, 0.04 µM.
The mark [6] stands for this setting: EVSA-T cells, 72 hours, Alamar Blue, read-out: EVSA-T prolif.

T1 sequence (Q13490 267-363): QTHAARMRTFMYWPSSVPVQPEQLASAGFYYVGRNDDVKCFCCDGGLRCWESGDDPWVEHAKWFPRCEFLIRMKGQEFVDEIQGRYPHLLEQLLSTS
T2 sequence (P98170 252-350): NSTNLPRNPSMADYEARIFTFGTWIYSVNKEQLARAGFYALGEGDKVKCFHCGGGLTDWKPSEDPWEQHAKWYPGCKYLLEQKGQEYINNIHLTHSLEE

With `C[C@@H]1CN(CC(=O)N2CC(C)(C)c3ncc(C(O)c4cccc(F)c4)cc32)[C@@H](CN2[C@H](C)COC[C@H]2C)CN1` (single isomer, unassigned) [Example 106, 2-[(2R,5R)-2-{[(3R,5R)-3,5-Dimethylmorpholin-4-yl]methyl}-5-methylpiperazin-1-yl]-1-{6-[(R or S)-(3-fluorophenyl)-(hydroxy)methyl]-3,3-dimethyl-1H,2H,3H-pyrrolo[3,2-b]pyridin-1-yl}ethan-1-one dihydrochloride], the EC50 in test [1] (setting [4]) worked out at 0.0043 µM. For the same compound, the “cIAP1 IC50 or PI μM (PI)” value in test [2] (180 min, dihydrochloride, […]) is on record as 88%@0.012. The “Xiap IC50 or PI μM (PI)” value in test [3] (setting [5]) was determined as 42%@0.04.
Turning to `C[C@@H]1CN(CC(=O)N2CC(C)(C)c3ncc(C(O)c4cccc(F)c4F)cc32)[C@@H](CN2[C@H](C)COC[C@H]2C)CN1` (single isomer, unassigned) [Example 112, (R or S)-1-{6-[(2,3-Difluorophenyl)(hydroxy)meth-yl]-3,3-dimethyl-1H,2H,3H-pyrrolo[3,2-b]pyridin-1-yl}-2-[(2R,5R)-2-{[(3R,5R)-3,5-dimethylmorpholin-4-yl]methyl}-5-methylpiperazin-1-yl]ethan-1-one dihdrochloride], in test [1] (setting [6]), the EC50 was 0.02 µM. In test [2] (180 min, […]), the “cIAP1 IC50 or PI μM (PI)” value was found to be 90%@0.012. In test [3] (PI at 0.04 μM, 60 min, 0.04 µM), the “Xiap IC50 or PI μM (PI)” value turned out to be 47%@0.04.
Take `C[C@@H]1CN(CC(=O)N2CC(C)(C)c3ncc(C(O)c4ccccc4F)cc32)[C@@H](CN2[C@H](C)COC[C@H]2C)CN1` (single isomer, unassigned) [Example 108, 2-[(2R,5R)-2-{[(3R,5R)-3,5-Dimethylmorpholin-4-yl]methyl}-5-methylpiperazin-1-yl]-1-{6-[(R or S)-(2-fluorophenyl)-(hydroxy)methyl]-3,3-dimethyl-1H,2H,3H-pyrrolo[3,2-b]pyridin-1-yl}ethan-1-one dihydrochloride]: in test [1] (setting [4]), the EC50 amounted to 0.0027 µM. Besides, in test [2] (180 min, dihydrochloride, […]), the “cIAP1 IC50 or PI μM (PI)” value came out at 97%@0.012. Further, in test [3] (setting [5]), the “Xiap IC50 or PI μM (PI)” value was determined as 66%@0.04.
On to `C[C@@H]1CN(CC(=O)N2CC(C)(C)c3cnc(Cc4ccc(F)cc4)cc32)[C@@H](CN2CCOC[C@]2(C)CO)CN1.Cl.Cl` [Example 61, 1-{6-[(4-Fluorophenyl)methyl]-3,3-dimethyl-1H,2H,3H-pyrrolo[3,2-c]pyridin-1-yl}-2-[(2R,5R)-2-{[(3S)-3-(hydroxymethyl)-3-methylmorpholin-4-yl]methyl}-5-methylpiperazin-1-yl]ethan-1-one, dihydrochloride], for which, in test [1] (setting [6]), the EC50 was determined as 0.006 µM. Further, the “cIAP1 IC50 or PI μM (PI)” value in test [2] is on record as 99%@0.012. Further, the “Xiap IC50 or PI μM (PI)” value in test [3] (PI at 0.04 μM) came out at 57%@0.04.
With `C[C@@H]1CN(CC(=O)N2CC(C)(C)c3ncc(Cc4ccc(F)cc4)cc32)[C@@H](CN2CCCCC2C(F)(F)F)CN1` (single isomer, unassigned) [Example 26, 1-{6-[(4-Fluorophenyl)methyl]-3,3-dimethyl-1H,2H,3H-pyrrolo[3,2-b]pyridin-1-yl}-2-[(2R,5R)-5-methyl-2-{[2-([R or S]trifluoromethyl)piperidin-1-yl]methyl}piperazin-1-yl]ethan-1-one hydrochloride], the EC50 in test [1] (EVSA-T cells, 72 hours, Alamar Blue, hydrochloride, read-out: EVSA-T prolif) was determined as 0.12 µM. Besides, the “cIAP1 IC50 or PI μM (PI)” value in test [2] (180 min, hydrochloride, […]) was 94%@0.012. The IC50 in test [3] (plain number = IC50, average where more than one data point, read-out: Xiap IC50 or PI μM (IC50)) is 0.21 µM.
For the compound `COCC1(C)COCCN1C[C@H]1CN[C@H](C)CN1CC(=O)N1CC(C)(C)c2ncc(Cc3ccc(F)cc3)cc21` (single isomer, unassigned) [Example 100, dihydrochloride], the EC50 was 0.00092 µM in test [1] (setting [4]) and below 1 µM in test [1] (Homo sapiens, EVSA-T, read-out: EC50 in EVSA-T cell line assays). For the same compound, the “cIAP1 IC50 or PI μM (PI)” value in test [2] (180 min, dihydrochloride, […]) is 99%@0.012. Further, the inhibition at 0.04 µM in test [3] (1 h, PI at 0.04 μM, read-out: Xiap IC50 or PI μM (PI)) stood at 56%. Further, the IC50 in test [3] (or at least 50% inhibition of the activity at 0.1 μM, read-out: IC50 in the XIAP assay) was below 0.1 µM.
